This passage reports half-life results from ChEMBL document CHEMBL1138669, “Dipeptidyl peptidase IV inhibitors for the treatment of diabetes” (J Med Chem, 2004).

The data set can be described thus: Half life was determined. The format is ADME. The note with it: rat.

For orientation: half-life means the time needed for the level to fall by half in the phase considered. Low values mean fast loss, high ones slow loss. For `N#Cc1ccc(NCCNCC(=O)N2CCC[C@H]2C#N)nc1`, the half-life was determined as 50 min.
